Patent publication US4216324A, “1-Difluoromethyl-6,7-methylenedioxy-1,4-dihyd ro-4-oxo-3-quinolinecarboxylic acid” (E. I. Du Pont de Nemours and Company, priority 1978, dated 1980)
In brackets after ≈: the same amount, converted by molar mass. Where two headings read alike, the source gives them in different places.

Assays:
[1] = General pharmacology screen in rats; details: in vivo, rat, doses given in mg./kg; for LD50 at 24 h: oral, read-out: ED50 24-Hour Mort.; for TD50: po
[2] = system: Sal. typhimurium; experiment: In vitro minimum inhibitory concentration (MIC), tube dilution test; format: cell-based; details: Salmonella enterica, 20 h, brain-heart infusion broth, 20hour incubation at 37° C., read-out: Minimal Inhibitory Test Conens. (MIC)
Procedure: (§1) A. In vitro: mimimum inhibitory concentration (MIC)
(§2) The compound was tested in a standard bacteriological tube dilution test for MIC for a variety of bacteria. Stock cultures of the bacteria listed in Table 1 were grown in bacterial culture media at 37° C. overnight and diluted in culture tubes to a previously determined concentration proper for the test. The compound was added to result in final concentrations of 10, 2, 0.4 and 0.08 μg/ml. These were incubated for 18 hours at 37° C. and then observed to determine if growth of bacteria had occurred. The lowest concentration of the compound that inhibited bacterial growth in the MIC.
(§3) *brain-heart infusion broth, 20hour incubation at 37° C.

[3] = system: E. coli; experiment: as above; format: cell-based; details: Escherichia coli, 20 h, brain-heart infusion broth, 20hour incubation at 37° C., read-out: Minimal Inhibitory Test Conens. (MIC)
Procedure: as §1, §2, §3

[4] = system: Ser. marcescens; experiment: as above; format: cell-based; details: Serratia marcescens; Ser. marcescens (22); brain-heart infusion broth, 20hour incubation at 37° C.; read-out: Minimal Inhibitory Test Conens. (MIC)
Procedure: as §1, §2, §3

[5] = system: Shiq. dysenteriae; experiment: as above; format: cell-based; details: 20 h, read-out: Minimal Inhibitory Test Conens. (MIC)
Procedure: as §1, §2, §3

[6] = system: Proteus vulgaris; experiment: as above; format: cell-based; details: Proteus vulgaris (14P); brain-heart infusion broth, 20hour incubation at 37° C.; read-out: Minimal Inhibitory Test Conens. (MIC)
Procedure: as §1, §2, §3

[7] = system: Bac. subtilis; experiment: as above; format: cell-based; details: Bacillus subtilis; Bac. subtilis (07A); brain-heart infusion broth, 20hour incubation at 37° C.; read-out: Minimal Inhibitory Test Conens. (MIC)
Procedure: as §1, §2, §3

[8] = system: Sal. choleraesuis; experiment: as above; format: cell-based; details: Salmonella enterica, 20 h, read-out: Minimal Inhibitory Test Conens. (MIC)
Procedure: as §1, §2, §3

[9] = system: Strep. pyogenes; experiment: as above; format: cell-based; details: Streptococcus pyogenes; Strep. pyogenes (10V); brain-heart infusion broth, 20hour incubation at 37° C.; read-out: Minimal Inhibitory Test Conens. (MIC)
Procedure: as §1, §2, §3

[10] = system: Aero. cloacae; experiment: as above; format: cell-based; details: Enterobacter cloacae; Aero. cloacae (39A); brain-heart infusion broth, 20hour incubation at 37° C.; read-out: Minimal Inhibitory Test Conens. (MIC)
Procedure: as §1, §2, §3

[11] = system: Proteus sp.; experiment: as above; format: cell-based; details: brain-heart infusion broth, 20hour incubation at 37° C., read-out: Minimal Inhibitory Test Conens. (MIC)
Procedure: as §1, §2, §3

[12] = system: Sal. typhi; experiment: as above; format: cell-based; details: brain-heart infusion broth, 20hour incubation at 37° C.; for MIC: Salmonella enterica
Procedure: as §1, §2, §3

[13] = system: Kleb. aerobacter; experiment: as above; format: cell-based; details: Kleb. aerobacter (20F); brain-heart infusion broth, 20hour incubation at 37° C.; read-out: Minimal Inhibitory Test Conens. (MIC)
Procedure: as §1, §2, §3

[14] = system: Sal. gallinarum; experiment: as above; format: cell-based; details: Salmonella enterica, 20 h, brain-heart infusion broth, 20hour incubation at 37° C., read-out: Minimal Inhibitory Test Conens. (MIC)
Procedure: as §1, §2, §3

[15] = system: Staph. aureus; experiment: as above; format: cell-based; details: Staphylococcus aureus; Staph. aureus (08F); brain-heart infusion broth, 20hour incubation at 37° C.; read-out: Minimal Inhibitory Test Conens. (MIC)
Procedure: as §1, §2, §3

[16] = system: Pseud. aeruginosa; experiment: as above; format: cell-based; details: Pseudomonas aeruginosa, 20 h, brain-heart infusion broth, 20hour incubation at 37° C., read-out: Minimal Inhibitory Test Conens. (MIC)
[17] = rectal temperature, read-out: ED50 Hypertherm.
[18] = rectal temperature, read-out: ED50 Hypotherm.
[19] = vertical bar loss, read-out: ED50 Vert. Bar

CCn1cc(C(=O)O)c(=O)c2ccc(C)nc21 [Nalidixic Acid, nalidixic acid]
LD50 at 24 h [1]: > 324 mg/kg | TD50 ([1]; read-out: ED50 Ataxia): 187 mg/kg | TD50 ([1]; read-out: ED50 Excitation): > 324 mg/kg | TD50 ([1]; read-out: ED50 Irritability): > 324 mg/kg | TD50 [1, 17]: > 324 mg/kg | TD50 [1, 18]: > 324 mg/kg | TD50 [1, 19]: 360 mg/kg | MIC ([2]; Sal. typhimurium (03A)): 2 µg/mL (≈ 8.61 µM) | MIC ([2]; Sal. typhimurium (03C)): 2 µg/mL (≈ 8.61 µM) | MIC ([2]; Sal. typhimurium (03K)): 2 µg/mL (≈ 8.61 µM) | MIC ([3]; E. coli (06-2B)): > 10 µg/mL | MIC ([3]; E. coli (06-2F)): 2 µg/mL (≈ 8.61 µM) | MIC ([3]; E. coli (06-2L)): > 10 µg/mL | MIC ([3]; E. coli (06-2M)): 2 µg/mL (≈ 8.61 µM) | MIC ([3]; E. coli (06C)): > 10 µg/mL | MIC ([3]; E. coli (06I)): > 10 µg/mL | MIC ([3]; E. coli (06J)): 2 µg/mL (≈ 8.61 µM) | MIC ([3]; E. coli (06K)): 10 µg/mL (≈ 43.1 µM) | MIC ([3]; E. coli (06L)): 10 µg/mL (≈ 43.1 µM) | MIC ([3]; E. coli (06M)): 10 µg/mL (≈ 43.1 µM) | MIC ([3]; E. coli (06S)): 10 µg/mL (≈ 43.1 µM) | MIC ([3]; E. coli (06V)): 2 µg/mL (≈ 8.61 µM) | MIC ([3]; E. coli (06X)): 10 µg/mL (≈ 43.1 µM) | MIC ([3]; E.coli (06-2D)): 10 µg/mL (≈ 43.1 µM) | MIC [4]: 2 µg/mL (≈ 8.61 µM) | MIC [5]: > 10 µg/mL | MIC [6]: > 10 µg/mL | MIC [7]: 0.4 µg/mL (≈ 1.72 µM) | MIC [8]: 2 µg/mL (≈ 8.61 µM) | MIC [9]: 10 µg/mL (≈ 43.1 µM) | MIC [10]: 2 µg/mL (≈ 8.61 µM) | MIC [11]: 2 µg/mL (≈ 8.61 µM) | MIC ([12]; TYPHI, 20 h, read-out: Minimal Inhibitory Test Conens. (MIC), Sal. typhi (02A)): 10 µg/mL (≈ 43.1 µM) | MIC ([12]; TYPHI, 20 h, read-out: Minimal Inhibitory Test Conens. (MIC), Sal. typhi (02B)): 2 µg/mL (≈ 8.61 µM) | MIC [13]: > 10 µg/mL | MIC ([14]; Sal. gallinarum (04C)): > 10 µg/mL | MIC ([14]; Sal. gallinarum (04D)): 10 µg/mL (≈ 43.1 µM) | MIC [15]: 2 µg/mL (≈ 8.61 µM) | MIC ([16]; Pseud. aeruginosa (11B)): > 10 µg/mL | MIC ([16]; Pseud. aeruginosa (11C)): > 10 µg/mL | MIC ([16]; Pseud. aeruginosa (11D)): > 10 µg/mL | MIC ([16]; Pseud. aeruginosa (11G)): > 10 µg/mL | MIC ([16]; Pseud. aeruginosa (11I)): > 10 µg/mL | MIC ([16]; Pseud. aeruginosa (11J)): > 10 µg/mL

CCn1cc(C(=O)O)c(=O)c2cc3c(cc21)OCO3 [Oxolinic Acid, oxolinic acid]
LD50 at 24 h [1]: > 324 mg/kg | TD50 ([1]; read-out: ED50 Ataxia): 97 mg/kg | TD50 ([1]; read-out: ED50 Excitation): 62 mg/kg | TD50 ([1]; read-out: ED50 Irritability): > 324 mg/kg | TD50 [1, 17]: 121 mg/kg | TD50 [1, 18]: > 324 mg/kg | TD50 [1, 19]: 187 mg/kg | MIC ([2]; Sal. typhimurium (03A)): 0.4 µg/mL (≈ 1.53 µM) | MIC ([2]; Sal. typhimurium (03C)): 0.4 µg/mL (≈ 1.53 µM) | MIC ([2]; Sal. typhimurium (03K)): < 0.08 µg/mL | MIC ([3]; E. coli (06-2B)): 2 µg/mL (≈ 7.66 µM) | MIC ([3]; E. coli (06-2F)): 0.4 µg/mL (≈ 1.53 µM) | MIC ([3]; E. coli (06-2L)): 10 µg/mL (≈ 38.3 µM) | MIC ([3]; E. coli (06-2M)): < 0.08 µg/mL | MIC ([3]; E. coli (06C)): 2 µg/mL (≈ 7.66 µM) | MIC ([3]; E. coli (06I)): 10 µg/mL (≈ 38.3 µM) | MIC ([3]; E. coli (06J)): 0.4 µg/mL (≈ 1.53 µM) | MIC ([3]; E. coli (06K)): 0.4 µg/mL (≈ 1.53 µM) | MIC ([3]; E. coli (06L)): 0.4 µg/mL (≈ 1.53 µM) | MIC ([3]; E. coli (06M)): 0.4 µg/mL (≈ 1.53 µM) | MIC ([3]; E. coli (06S)): 2 µg/mL (≈ 7.66 µM) | MIC ([3]; E. coli (06V)): 0.4 µg/mL (≈ 1.53 µM) | MIC ([3]; E. coli (06X)): 2 µg/mL (≈ 7.66 µM) | MIC ([3]; E.coli (06-2D)): 2 µg/mL (≈ 7.66 µM) | MIC [4]: 0.4 µg/mL (≈ 1.53 µM) | MIC [5]: 0.4 µg/mL (≈ 1.53 µM) | MIC [6]: 2 µg/mL (≈ 7.66 µM) | MIC [7]: < 0.08 µg/mL | MIC [8]: < 0.08 µg/mL | MIC [9]: < 0.08 µg/mL | MIC [10]: < 0.08 µg/mL | MIC [11]: < 0.08 µg/mL | Minimal Inhibitory Test Conens. (MIC) ([12]; Sal. typhi (02B)): 0.4 µg/mL | MIC ([12]; Sal. typhi (02A), read-out: Minimal Inhibitory Test Conens. (MIC)): 0.4 µg/mL (≈ 1.53 µM) | MIC [13]: > 10 µg/mL | MIC ([14]; Sal. gallinarum (04C)): 2 µg/mL (≈ 7.66 µM) | MIC ([14]; Sal. gallinarum (04D)): 0.4 µg/mL (≈ 1.53 µM) | MIC [15]: 0.4 µg/mL (≈ 1.53 µM) | MIC ([16]; Pseud. aeruginosa (11B)): 2 µg/mL (≈ 7.66 µM) | MIC ([16]; Pseud. aeruginosa (11C)): 2 µg/mL (≈ 7.66 µM) | MIC ([16]; Pseud. aeruginosa (11D)): 10 µg/mL (≈ 38.3 µM) | MIC ([16]; Pseud. aeruginosa (11G)): 10 µg/mL (≈ 38.3 µM) | MIC ([16]; Pseud. aeruginosa (11I)): 2 µg/mL (≈ 7.66 µM) | MIC ([16]; Pseud. aeruginosa (11J)): 2 µg/mL (≈ 7.66 µM)
